Data set [1] has as its system Chikungunya virus. Nature of the data set: Antiviral activity against Chikungunya virus 181/25 infected in human NHDF cells assessed as reduction of virus titer treated with cells at 1 hr prior to infection and measured at 24 hrs post-infection by plaque assay. In kind it is functional, organism-based. The settings on record: 181/25, NHDF; for EC90: time 25 hrs.
A short description of data set [2]: Cytotoxicity against human NHDF cells assessed as reduction in cell viability incubated for 24 hrs by CellTiter Glo luminescence assay. The data set is classed as toxicity, cell-based.
In data set [3] the test system is Chikungunya virus. Nature of the data set: Antiviral activity against Chikungunya virus 181/25 infected in human NHDF cells assessed as log reduction of virus titer at 10 uM treated with cells at 1 hr prior to infection and measured at 24 hrs post-infection by plaque assay. The data set is classed as functional. To be noted: time 25 hrs.
Data set [4] is described as follows: Cytotoxicity against human NHDF cells deficient of IRF3 assessed as reduction in cell viability incubated for 72 hrs by CellTiter Glo luminescence assay. The data set is classed as toxicity, cell-based.
Data set [5] can be described thus: Kinetic solubility of the compound in simulated intestinal fluid at pH 7.5 by LC-MS analysis. The settings on record: read-out: Kinetic_solubility. In kind it is physicochemical.
Data set [6] can be described thus: Octanol/PBS buffer distribution coefficient, logD of the compound at pH 7.5 by LC-MS analysis. The data set is classed as physicochemical.
Data set [7] is described as follows: Half life of the compound in mouse liver microsomes in presence of NADPH by LC-MS/MS analysis. The data set is classed as ADME, Microsome.
Data set [8] is described as follows: Half life of the compound in human liver microsomes in presence of NADPH by LC-MS/MS analysis. The data set is classed as ADME, Microsome.
Data set [9] deals with Venezuelan equine encephalitis virus. Nature of the data set: Antiviral activity against VEEV TC-83 infected in human NHDF cells assessed as reduction of virus titer treated with cells at 1 hr prior to infection and measured at 24 hrs post-infection by plaque assay. In kind it is functional. To be noted: TC-83, NHDF, time 25 hrs.
Data set [10] shares this test system. The experiment in a line: Antiviral activity against VEEV TC-83 infected in human NHDF cells assessed as log reduction of virus titer at 10 uM treated with cells at 1 hr prior to infection and measured at 24 hrs post-infection by plaque assay. The data set is classed as functional. The settings on record: time 25 hrs.
The subject of data set [11] is West Nile virus. The experiment in a line: Antiviral activity against West Nile virus NY99 infected in human HEK293 cells assessed as reduction of virus load measured at 3 days post-infection by focus-forming assay. To be noted: NY99, HEK293, 72 h, time 3 day. The data set is classed as functional.
Data set [12] concerns West Nile virus. The experiment in a line: Antiviral activity against West Nile virus NY99 infected in human HEK293 cells assessed as log reduction of virus titer at 10 uM measured at 3 days post-infection by focus-forming assay. In kind it is functional. To be noted: time 3 day.
The test system of data set [13] is dengue virus type 2. The experiment in a line: Antiviral activity against Dengue virus 2 NGC infected in human HEK293 cells assessed as reduction of virus load measured at 3 days post-infection by focus-forming assay. In kind it is functional. To be noted: HEK293, 72 h, time 3 day.
Data set [14] relates to dengue virus type 2. The experiment in a line: Antiviral activity against Dengue virus 2 NGC infected in human HEK293 cells assessed as log reduction of virus titer at 10 uM measured at 3 days post-infection by focus-forming assay. The data set is classed as functional. The settings on record: time 3 day.
For data set [15], the system named is Zika virus. The experiment in a line: Antiviral activity against Zika virus PRABC59 infected in human HEK293 cells assessed as reduction of virus load measured at 3 days post-infection by focus-forming assay. To be noted: PRABC59, HEK293, 72 h, time 3 day. The data set is classed as functional.
In data set [16] the test system is Zika virus. Nature of the data set: Antiviral activity against Zika virus PRABC59 infected in human HEK293 cells assessed as log reduction of virus titer at 10 uM measured at 3 days post-infection by focus-forming assay. The data set is classed as functional. The settings on record: time 3 day.
Data set [17] in a line: Cytotoxicity against human HEK293 cells. The data set is classed as toxicity, cell-based.
Data set [18] deals with Chikungunya virus. The experiment in a line: Antiviral activity against Chikungunya virus Sri Lanka strain infected in African green monkey Vero E6 cells assessed as inhibition of virus-induced cytopathic effect incubated for 72 hrs by CellTiter Glo luminescence assay. The data set is classed as functional, organism-based. The settings on record: Vero C1008, 72 h.
The nature of data set [19]: Cytotoxicity against African green monkey VeroE6 cells assessed as reduction in cell viability incubated for 72 hrs by CellTiter Glo luminescence analysis. In kind it is toxicity, cell-based, Vero C1008. The settings on record: chlorocebus sabaeus.
In data set [20] the test system is Chikungunya virus. Nature of the data set: Antiviral activity against Chikungunya virus infected in human NHDF cells assessed as inhibition of viral production by NanoLuc reporter assay. In kind it is functional, organism-based.

`CCOC(=O)N1CCN(c2cc(-c3ccc(C#N)cc3)cc(-c3csc(NC(=O)c4cccnc4SC)n3)c2)CC1`: the concentration for an effect of 90% (EC90) in the data set with Chikungunya virus [1] came out at 20 nM; in data set [9], 20 nM; in the data set with West Nile virus [11], 150 nM; in the data set on dengue virus type 2 [13], 300 nM; in the data set with Zika virus [15], 150 nM. Also, the CC50 at 24 h in data set [2] is greater than 30000 nM. The “log(activity)” value in the data set on Chikungunya virus [3] is reported as 8.1; in data set [10], 4.9; with West Nile virus [12], 4; with dengue virus type 2 [14], 3.3; in the data set with Zika virus [16], 3.5. For the same compound, in data set [4], the half-maximal cytotoxic concentration (CC50) at 72 h was greater than 40000 nM. Further, the solubility kinetic in [5] was less than 1 µM. Also, in data set [6], the logD is greater than 3.99. Further, the half-life stood at 63 min in data set [7] and 21 min in data set [8]. Moreover, the cytotoxic concentration (CC50) in data set [17] was greater than 30000 nM.

Regarding `CSc1ncccc1C(=O)Nc1nc(-c2cc(Nc3ccc(C#N)cc3)cc(N3CCOCC3)c2)cs1`, the concentration for an effect of 90% (EC90) was 100 nM in the data set on Chikungunya virus [1]; 450 nM in [9]; 24000 nM with West Nile virus [11]; 1800 nM in the data set with dengue virus type 2 [13]; 800 nM in the data set with Zika virus [15]. Further, the CC50 at 24 h in data set [2] was greater than 30000 nM. The “log(activity)” value with Chikungunya virus [3] is reported as 5.1; in data set [10], 3.81; in the data set on dengue virus type 2 [14], 1.9; with Zika virus [16], 1.7. For the same compound, the CC50 at 72 h in data set [4] is greater than 40000 nM. Further, in data set [5], the solubility kinetic is less than 1 µM. In data set [6], this compound gave a logD greater than 3.92. Moreover, the values for the half-life in data set [7] and in [8] were 64 min and 15 min, respectively. The compound further had a CC50 in data set [17] greater than 30000 nM.

Regarding `CSc1ncccc1C(=O)Nc1nc(-c2cccc(Nc3cccc(C#N)c3)c2)cs1`, the half-maximal cytotoxic concentration (CC50) at 24 h in data set [2] was greater than 30000 nM. In addition, the “log(activity)” value in the data set with Chikungunya virus [3] stood at 5.7; in data set [10] it was 7.3; with West Nile virus [12] it was 4.3; in the data set on dengue virus type 2 [14], 3.7; in the data set on Zika virus [16], 3.4. Besides, the CC50 at 72 h in data set [4] was greater than 30000 nM. The solubility kinetic in data set [5] was less than 1 µM. Moreover, the logD in data set [6] was greater than 3.54. The half-life in data set [7] was 33 min; in data set [8] it was 25 min. For the same compound, the EC90 in data set [9] worked out at 600 nM; in the data set on West Nile virus [11] it was 1100 nM; in the data set with dengue virus type 2 [13], 500 nM; in the data set with Zika virus [15], 400 nM. Besides, the cytotoxic concentration (CC50) in data set [17] is greater than 30000 nM.

Regarding `CSc1ncccc1C(=O)Nc1nc(-c2ccc3ccccc3c2)cs1`, the EC50 in the data set with Chikungunya virus [18] was determined as 4500 nM; in the data set with Chikungunya virus [1], 4700 nM; in the data set with Chikungunya virus [20] it was 1060 nM. Moreover, the values for the CC50 at 72 h in data set [19] and in data set [4] were 107000 nM and greater than 40000 nM, respectively. Further, the EC90 with Chikungunya virus [1] worked out at 930 nM. The 50% cytotoxic concentration (CC50) at 24 h in data set [2] was 132000 nM. For the same compound, the “log(activity)” value in the data set with Chikungunya virus [3] stood at 6.9. The solubility kinetic in data set [5] is less than 1 µM. Besides, in [6], the log distribution coefficient (logD) was 4.8. Moreover, the results for the half-life in data set [7] and in data set [8] were 27 min and 35 min, respectively.

Consider `COc1cc(Nc2cccc(-c3csc(NC(=O)c4cccnc4SC)n3)c2)ccc1C#N`, for which the 50% cytotoxic concentration (CC50) at 24 h in data set [2] was greater than 30000 nM. The “log(activity)” value with Chikungunya virus [3] worked out at 5.1; in data set [10], 2; in the data set with West Nile virus [12], 2.9; in the data set with dengue virus type 2 [14], 3; in the data set with Zika virus [16], 3. Besides, the CC50 at 72 h in [4] is greater than 30000 nM. In addition, the solubility kinetic in data set [5] was less than 1 µM. Also, the pH-dependent lipophilicity (logD) in [6] was greater than 4.33. The half-life in data set [7] was determined as 34 min; in [8], 25 min. Further, the EC90 in data set [9] was determined as 210 nM; in the data set with West Nile virus [11] it was 1200 nM; with dengue virus type 2 [13], 400 nM; in the data set with Zika virus [15], 500 nM. For the same compound, the CC50 in [17] is greater than 30000 nM.

As to `CSc1ncccc1C(=O)Nc1nc(-c2cccc(-c3cccc(C#N)c3)c2)cs1`, the concentration for an effect of 90% (EC90) in the data set on Chikungunya virus [1] amounted to 100 nM; in data set [9] it was 350 nM; in the data set with West Nile virus [11] it was 1500 nM; with dengue virus type 2 [13] it was 300 nM; in the data set with Zika virus [15], 300 nM. For the same compound, in [2], the cytotoxic concentration (CC50) at 24 h is greater than 30000 nM. The “log(activity)” value in the data set with Chikungunya virus [3] is given as 5.3; in [10], 5.2; with West Nile virus [12] it was 2.7; in the data set on dengue virus type 2 [14], 2.9; with Zika virus [16], 3.5. The CC50 at 72 h in data set [4] was greater than 30000 nM. Also, the solubility kinetic in data set [5] is less than 1 µM. This compound also registered a logD in data set [6] of 3. Also, the half-life worked out at 31 min in data set [7] and 21 min in data set [8]. This compound showed a cytotoxic concentration (CC50) in data set [17] greater than 30000 nM.
